Holding throughout (assay): Test on herbicidal activity by foliar application
What all share (format): in vivo
What all share (details): foliar spray, 1 kg/ha, plants at 1-2 leaf stage in pots, evaluated 14 days after spraying

For one assay, the system named is Bidens pilosa. An outline of the steps: (§1)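 Post-emergence test: dissolved wettable-powder formulation applied at 1 kg/ha to foliage of potted plants (1-2 leaves); herbicidal effect graded 14 days on, grades 1-5 covering <30% to ≥90% inhibition.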
A further assay deals with Setaria viridis. An outline of the steps: as §1
The test system of a further assay is Convolvulus arvensis. An outline of the steps: as §1
In another assay the test system is Amaranthus retroflexus. An outline of the steps:
as §1

A further assay relates to Abutilon theophrasti. The method in brief:
as §1

In a further assay the test system is Matricaria chamomilla. An outline of the steps: as §1
The test system of another assay is Sinapis arvensis. An outline of the steps: as §1
Another assay has as its system Stellaria media. An outline of the steps:
as §1

Another assay has as its system Galium aparine. The method in brief:
as §1

The next assay concerns Solanum nigrum. An outline of the steps: as §1
Another assay relates to Veronica hederaefolia. An outline of the steps:
as §1

Molecules are shown by their SMILES.

Turning to `COc1ccc(C(=O)NS(=O)(=O)c2ccccc2S(=O)(=O)N(C)OC)nc1Br` [Compound I-830, 6-Bromo-5-methoxy-N-[[2-(N-methyl-N-methoxyaminosulfonyl]phenyl]sulfonyl]-2-pyridinecarboxamide], in the assay on Bidens pilosa, the “Herbicidal activity, Bidens pilosa” value is 5 (90% or more inhibition). In the assay on Setaria viridis, the “Herbicidal activity, Setaria viridis” value was 4 (70% or more-90% inhibition). The “Herbicidal activity, Convolvulus arvensis” value in the assay with Convolvulus arvensis is given as 5 (90% or more inhibition). Moreover, the “Herbicidal activity, Amaranthus retroflexus” value with Amaranthus retroflexus was 5 (90% or more inhibition). Moreover, the “Herbicidal activity, Abutilon theophrasti” value in the assay with Abutilon theophrasti is given as 5 (90% or more inhibition). Also, in the assay with Matricaria chamomilla, the “Herbicidal activity, Matricaria chamomilla” value is on record as 5 (90% or more inhibition). In addition, in the assay on Sinapis arvensis, the “Herbicidal activity, Sinapis arvensis” value is on record as 5 (90% or more inhibition). Moreover, the “Herbicidal activity, Stellaria media” value with Stellaria media was 5 (90% or more inhibition). Besides, the “Herbicidal activity, Galium aparine” value in the assay with Galium aparine is 5 (90% or more inhibition). Moreover, the “Herbicidal activity, Solanum nigrum” value in the assay on Solanum nigrum is 5 (90% or more inhibition). Further, the “Herbicidal activity, Veronica hederaefolia” value in the assay on Veronica hederaefolia is listed as 5 (90% or more inhibition).
Consider `COc1cc(Cl)nc(C(=O)NS(=O)(=O)c2ccccc2S(C)(=O)=O)c1` [Compound I-818, 6-Chloro-4-methoxy-N-[[2-(methylsulfonyl)-phenyl]sulfonyl]-2-pyridinecarboxamide], for which the “Herbicidal activity, Bidens pilosa” value in the assay on Bidens pilosa is listed as 5 (90% or more inhibition). Further, the “Herbicidal activity, Setaria viridis” value in the assay with Setaria viridis is reported as 5 (90% or more inhibition). Besides, the “Herbicidal activity, Convolvulus arvensis” value in the assay with Convolvulus arvensis is on record as 5 (90% or more inhibition). The “Herbicidal activity, Amaranthus retroflexus” value with Amaranthus retroflexus is on record as 5 (90% or more inhibition). Also, the “Herbicidal activity, Abutilon theophrasti” value with Abutilon theophrasti was 4 (70% or more-90% inhibition). Moreover, in the assay on Matricaria chamomilla, the “Herbicidal activity, Matricaria chamomilla” value is listed as 5 (90% or more inhibition). Further, the “Herbicidal activity, Sinapis arvensis” value with Sinapis arvensis is 5 (90% or more inhibition). The “Herbicidal activity, Stellaria media” value with Stellaria media is 5 (90% or more inhibition). The “Herbicidal activity, Galium aparine” value in the assay with Galium aparine is given as 5 (90% or more inhibition). In addition, the “Herbicidal activity, Solanum nigrum” value with Solanum nigrum is 5 (90% or more inhibition). Besides, the “Herbicidal activity, Veronica hederaefolia” value in the assay with Veronica hederaefolia is 4 (70% or more-90% inhibition).
`COC(=O)c1ccccc1S(=O)(=O)NC(=O)c1cc(OC)cc(C)n1` [Compound I-254, 2-[[[(4-Methoxy-6-methylpyridin-2-yl)carbonyl]-amino]sulfonyl]benzoic Acid Methyl Ester]: the “Herbicidal activity, Bidens pilosa” value with Bidens pilosa was 5 (90% or more inhibition). For the same compound, the “Herbicidal activity, Setaria viridis” value with Setaria viridis is given as 4 (70% or more-90% inhibition). In addition, in the assay on Convolvulus arvensis, the “Herbicidal activity, Convolvulus arvensis” value is recorded as 3 (50% or more-70% inhibition). The “Herbicidal activity, Amaranthus retroflexus” value in the assay with Amaranthus retroflexus is 5 (90% or more inhibition). Besides, the “Herbicidal activity, Abutilon theophrasti” value in the assay on Abutilon theophrasti is 5 (90% or more inhibition). For the same compound, in the assay with Matricaria chamomilla, the “Herbicidal activity, Matricaria chamomilla” value is on record as 3 (50% or more-70% inhibition). In addition, the “Herbicidal activity, Sinapis arvensis” value in the assay on Sinapis arvensis was 5 (90% or more inhibition). Further, the “Herbicidal activity, Stellaria media” value with Stellaria media was 5 (90% or more inhibition). The “Herbicidal activity, Galium aparine” value with Galium aparine was 5 (90% or more inhibition). Further, the “Herbicidal activity, Solanum nigrum” value with Solanum nigrum is recorded as 5 (90% or more inhibition). Also, in the assay with Veronica hederaefolia, the “Herbicidal activity, Veronica hederaefolia” value was 5 (90% or more inhibition).
As for `COC(=O)c1ccccc1S(=O)(=O)NC(=O)c1cc(OC)cc(Cl)n1` [Compound I-255, 2-[[[(6-Chloro-4-methoxypyridin-2-yl)carbonyl]-amino]sulfonyl]benzoic Acid Methyl Ester], in the assay on Bidens pilosa, the “Herbicidal activity, Bidens pilosa” value is 5 (90% or more inhibition). Moreover, in the assay with Setaria viridis, the “Herbicidal activity, Setaria viridis” value was 4 (70% or more-90% inhibition). The “Herbicidal activity, Convolvulus arvensis” value with Convolvulus arvensis is on record as 5 (90% or more inhibition). For the same compound, in the assay with Amaranthus retroflexus, the “Herbicidal activity, Amaranthus retroflexus” value was 4 (70% or more-90% inhibition). In the assay on Abutilon theophrasti, the “Herbicidal activity, Abutilon theophrasti” value is on record as 5 (90% or more inhibition). For the same compound, the “Herbicidal activity, Matricaria chamomilla” value in the assay on Matricaria chamomilla is 5 (90% or more inhibition). Moreover, the “Herbicidal activity, Sinapis arvensis” value with Sinapis arvensis is 5 (90% or more inhibition). For the same compound, the “Herbicidal activity, Stellaria media” value in the assay on Stellaria media is 5 (90% or more inhibition). Also, the “Herbicidal activity, Galium aparine” value in the assay on Galium aparine is reported as 5 (90% or more inhibition). Also, the “Herbicidal activity, Solanum nigrum” value in the assay with Solanum nigrum was 5 (90% or more inhibition). The “Herbicidal activity, Veronica hederaefolia” value with Veronica hederaefolia is given as 5 (90% or more inhibition).
Take `COc1ccc(C(=O)NS(=O)(=O)c2ccccc2OC(F)(F)F)nc1Br` [Compound I-805, N-[[2-Trifluoromethoxyphenyl]sulfonyl]-6-bromo-5-methoxy-2-pyridinecarboxamide]: the “Herbicidal activity, Bidens pilosa” value in the assay on Bidens pilosa is 5 (90% or more inhibition). Moreover, in the assay with Setaria viridis, the “Herbicidal activity, Setaria viridis” value was 4 (70% or more-90% inhibition). Besides, in the assay with Convolvulus arvensis, the “Herbicidal activity, Convolvulus arvensis” value is 5 (90% or more inhibition). Further, in the assay on Amaranthus retroflexus, the “Herbicidal activity, Amaranthus retroflexus” value was 5 (90% or more inhibition). In the assay on Abutilon theophrasti, the “Herbicidal activity, Abutilon theophrasti” value is listed as 5 (90% or more inhibition). Further, in the assay on Matricaria chamomilla, the “Herbicidal activity, Matricaria chamomilla” value is 5 (90% or more inhibition). The “Herbicidal activity, Sinapis arvensis” value in the assay on Sinapis arvensis is on record as 5 (90% or more inhibition). For the same compound, the “Herbicidal activity, Stellaria media” value in the assay on Stellaria media is listed as 5 (90% or more inhibition). The “Herbicidal activity, Galium aparine” value with Galium aparine is listed as 5 (90% or more inhibition). The “Herbicidal activity, Solanum nigrum” value with Solanum nigrum is 5 (90% or more inhibition). Besides, the “Herbicidal activity, Veronica hederaefolia” value in the assay with Veronica hederaefolia is given as 4 (70% or more-90% inhibition).
Turning to `COc1ccc(C(=O)NS(=O)(=O)c2ccccc2S(=O)(=O)N(C)C)nc1C` [Compound I-859, N-[[2-(N,N-Dimethylaminosulfonyl)phenyl]-sulfonyl]-6-methyl-5-methoxy-2-pyridinecarboxamide], in the assay with Bidens pilosa, the “Herbicidal activity, Bidens pilosa” value is 5 (90% or more inhibition). Moreover, in the assay on Setaria viridis, the “Herbicidal activity, Setaria viridis” value is 5 (90% or more inhibition). Besides, the “Herbicidal activity, Convolvulus arvensis” value with Convolvulus arvensis is listed as 4 (70% or more-90% inhibition). Further, the “Herbicidal activity, Amaranthus retroflexus” value in the assay on Amaranthus retroflexus is 5 (90% or more inhibition). In the assay with Abutilon theophrasti, the “Herbicidal activity, Abutilon theophrasti” value is reported as 5 (90% or more inhibition). Moreover, in the assay with Matricaria chamomilla, the “Herbicidal activity, Matricaria chamomilla” value was 5 (90% or more inhibition). Also, the “Herbicidal activity, Sinapis arvensis” value in the assay with Sinapis arvensis is given as 5 (90% or more inhibition). Also, the “Herbicidal activity, Stellaria media” value with Stellaria media is listed as 5 (90% or more inhibition). Besides, the “Herbicidal activity, Galium aparine” value in the assay on Galium aparine is given as 5 (90% or more inhibition). Moreover, the “Herbicidal activity, Solanum nigrum” value in the assay on Solanum nigrum is listed as 5 (90% or more inhibition). In the assay on Veronica hederaefolia, the “Herbicidal activity, Veronica hederaefolia” value was 5 (90% or more inhibition).
Regarding `COc1cc(Cl)nc(C(=O)NS(=O)(=O)c2c(Cl)cccc2Cl)c1` [Compound I-615, 6-Chloro-N-[(2,6-Dichlorophenyl)sulfonyl]-4-methoxypyridine-2-carboxamide], in the assay on Bidens pilosa, the “Herbicidal activity, Bidens pilosa” value was 5 (90% or more inhibition). Also, in the assay with Setaria viridis, the “Herbicidal activity, Setaria viridis” value is recorded as 4 (70% or more-90% inhibition). Moreover, in the assay with Convolvulus arvensis, the “Herbicidal activity, Convolvulus arvensis” value is on record as 4 (70% or more-90% inhibition). Besides, the “Herbicidal activity, Amaranthus retroflexus” value with Amaranthus retroflexus is 4 (70% or more-90% inhibition). The “Herbicidal activity, Abutilon theophrasti” value with Abutilon theophrasti is 5 (90% or more inhibition). In the assay with Matricaria chamomilla, the “Herbicidal activity, Matricaria chamomilla” value is on record as 5 (90% or more inhibition). The “Herbicidal activity, Sinapis arvensis” value with Sinapis arvensis was 5 (90% or more inhibition). The “Herbicidal activity, Stellaria media” value with Stellaria media is 5 (90% or more inhibition). Also, the “Herbicidal activity, Galium aparine” value in the assay with Galium aparine is given as 5 (90% or more inhibition). In addition, in the assay with Solanum nigrum, the “Herbicidal activity, Solanum nigrum” value is recorded as 5 (90% or more inhibition). In addition, in the assay with Veronica hederaefolia, the “Herbicidal activity, Veronica hederaefolia” value is given as 4 (70% or more-90% inhibition).
In the case of `COc1cc(Cl)nc(C(=O)NS(=O)(=O)c2cccc(Cl)c2Cl)c1` [Compound I-345, N-[(2,3-Dichlorophenyl)sulfonyl]-6-chloro-4-methoxypyridine-2-carboxamide], in the assay with Bidens pilosa, the “Herbicidal activity, Bidens pilosa” value is 5 (90% or more inhibition). In addition, the “Herbicidal activity, Setaria viridis” value with Setaria viridis was 2 (30% or more-50% inhibition). Moreover, the “Herbicidal activity, Convolvulus arvensis” value with Convolvulus arvensis is listed as 5 (90% or more inhibition). Besides, in the assay with Amaranthus retroflexus, the “Herbicidal activity, Amaranthus retroflexus” value is 3 (50% or more-70% inhibition). For the same compound, the “Herbicidal activity, Abutilon theophrasti” value in the assay with Abutilon theophrasti is listed as 2 (30% or more-50% inhibition). For the same compound, the “Herbicidal activity, Matricaria chamomilla” value in the assay with Matricaria chamomilla is given as 4 (70% or more-90% inhibition). In addition, the “Herbicidal activity, Sinapis arvensis” value in the assay with Sinapis arvensis is reported as 5 (90% or more inhibition). The “Herbicidal activity, Stellaria media” value in the assay on Stellaria media is given as 4 (70% or more-90% inhibition). For the same compound, the “Herbicidal activity, Galium aparine” value with Galium aparine is 4 (70% or more-90% inhibition). The “Herbicidal activity, Solanum nigrum” value in the assay on Solanum nigrum is given as 5 (90% or more inhibition). Further, the “Herbicidal activity, Veronica hederaefolia” value in the assay with Veronica hederaefolia is on record as 3 (50% or more-70% inhibition).

The values are drawn from patent US6610853B1, “N-(phenylsulfonyl)picolinamide derivatives, process for producing the same, and herbicide” (Kureha Kagaku Kogyo K.K., priority 2000, dated 2003).
